Among the data in PubChem BioAssay (NCI) are TGI and GI50 values, retold here.

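Method: 48-hour compound exposure of cells in 96-well plates, five concentrations, linear interpolation of endpoints. The concentration for 50% growth inhibition is given as GI50. TGI marks complete inhibition of growth.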

Some test systems named below: MDA-MB-435; NCI-H23 lung; T-47D breast; SW-620 colon; M14 melanoma; MOLT-4 leukemia; UACC-257 melanoma; RPMI-8226 leukemia; SK-MEL-2 melanoma; IGROV1 ovarian.
Holding throughout (test): NCI tumour cell line growth inhibition, 48 h

Turning to `N#Cc1nc2cc(Cl)ccc2nc1N1CCN(c2ccc([N+](=O)[O-])cc2)CC1`, the TGI with MDA-MB-435, in the test with NCI-H23 lung, with T-47D breast, in the test with SW-620 colon, in the test on M14 melanoma and in the test with MOLT-4 leukemia was above 100 µM in each case. Besides, the TGI with UACC-257 melanoma and with RPMI-8226 leukemia was above 100 µM in each case.

Regarding `COc1cc2ccc(C(=O)NCCCNC(=O)c3ccc4cc(OC)c(OC)cc4c3)cc2cc1OC`, the TGI in the test on SK-MEL-2 melanoma, in the test on MDA-MB-435, with NCI-H23 lung, with T-47D breast, in the test with SW-620 colon and in the test on M14 melanoma was above 100 µM in each case. In addition, the TGI in the test on IGROV1 ovarian and in the test on UACC-257 melanoma was above 100 µM each time.

Consider `CN1CCN(Cc2c[nH]c3c2C(=O)c2c(c(O)c4ccccc4c2O)C3=O)CC1`, for which the GI50 in the test on MDA-MB-435 is 3.98 µM; in the test with NCI-H23 lung, 12.9 µM; with SW-620 colon, 12.5 µM; with M14 melanoma it was 1.79 µM; in the test on IGROV1 ovarian, 3.74 µM; in the test with MOLT-4 leukemia, 4.02 µM. Further, the GI50 was 15.9 µM in the test on UACC-257 melanoma and 3 µM in the test with RPMI-8226 leukemia. In addition, the TGI is 16.4 µM in the test on MDA-MB-435; 26.9 µM with NCI-H23 lung; 25 µM with SW-620 colon; 5.12 µM in the test with M14 melanoma; 23.4 µM in the test with IGROV1 ovarian; above 100 µM in the test with MOLT-4 leukemia. Also, the results for the TGI with UACC-257 melanoma and in the test on RPMI-8226 leukemia were 33.1 µM and 26.5 µM, respectively.

Regarding `Cc1cc(S(=O)(=O)Nc2nc3ncccc3[nH]2)c(S)cc1Cl`, the TGI in the test on MDA-MB-435, in the test with NCI-H23 lung, with T-47D breast, in the test with SW-620 colon, in the test on M14 melanoma and in the test on IGROV1 ovarian was above 100 µM in each case. In addition, the TGI in the test on MOLT-4 leukemia, in the test with UACC-257 melanoma and with RPMI-8226 leukemia was above 100 µM in each case.

Turning to `ClC(Cl)(Cl)C1CCOC1n1nnc2ccccc21` (centres undefined), the TGI in the test with SK-MEL-2 melanoma, with MDA-MB-435, with NCI-H23 lung, in the test on T-47D breast, with M14 melanoma and in the test with IGROV1 ovarian was above 100 µM throughout. Also, the TGI with MOLT-4 leukemia was 73.8 µM; in the test on UACC-257 melanoma, above 100 µM.

For `CC(C(=O)OCc1ccccc1)N(Cc1ccccc1)Cc1ccccc1` (centres undefined), the TGI in the test on SK-MEL-2 melanoma, with NCI-H23 lung, in the test on SW-620 colon, in the test with M14 melanoma, in the test on IGROV1 ovarian and with MOLT-4 leukemia was above 100 µM in each case. Further, the TGI in the test with UACC-257 melanoma and with RPMI-8226 leukemia was above 100 µM throughout.

For `COc1ccccc1OCC(COC(=O)Nc1ccccc1)OC(=O)Nc1ccccc1` (centres undefined), the TGI was 67.6 µM in the test with SK-MEL-2 melanoma; above 100 µM with NCI-H23 lung; above 100 µM in the test on SW-620 colon; above 100 µM with M14 melanoma; above 100 µM with IGROV1 ovarian; above 100 µM with UACC-257 melanoma.

Consider `Cn1nc2ccc(Nc3cc(=O)[nH]c4ccc5nn(C)nc5c34)cc2n1`, for which the TGI in the test with SK-MEL-2 melanoma, in the test on MDA-MB-435, in the test with NCI-H23 lung, in the test with T-47D breast, with SW-620 colon and in the test on M14 melanoma was above 100 µM throughout. The TGI in the test with IGROV1 ovarian, in the test with MOLT-4 leukemia and in the test with UACC-257 melanoma was above 100 µM each time.

With `CC[C@@]1(O)C(=O)OCc2c1cc1n(c2=O)Cc2c-1nc1ccc(O)cc1c2[Si](C)(C)C(C)(C)C`, the TGI in the test with SK-MEL-2 melanoma is 0.786 µM; with MDA-MB-435, 1.65 µM; in the test on NCI-H23 lung, 0.0274 µM; in the test on SW-620 colon, 10.9 µM; in the test on M14 melanoma, below 0.0114 µM; in the test on IGROV1 ovarian, 7.41 µM. The TGI worked out at 0.106 µM in the test with MOLT-4 leukemia, 0.681 µM in the test with UACC-257 melanoma and 4.77 µM in the test on RPMI-8226 leukemia.

As to `CCOC(=O)c1ccc(Nc2nc3ccccc3nc2-c2cccs2)cc1`, the TGI in the test on MDA-MB-435 was above 100 µM; in the test with NCI-H23 lung, above 100 µM; in the test on T-47D breast, 56.2 µM; in the test with IGROV1 ovarian, above 100 µM; in the test on MOLT-4 leukemia it was above 100 µM; in the test on UACC-257 melanoma it was above 100 µM. This compound yielded a TGI with RPMI-8226 leukemia above 100 µM.

On to `O=c1c2cc(C(F)(F)F)ccc2sc2c(NCCCNCCO)nc3ccccc3c12`, for which the GI50 is 1.92 µM with SK-MEL-2 melanoma; 1.62 µM with MDA-MB-435; 1.58 µM with NCI-H23 lung; 1.54 µM in the test on SW-620 colon; 1.23 µM with IGROV1 ovarian. The TGI worked out at 3.75 µM in the test on SK-MEL-2 melanoma; 3.04 µM in the test on MDA-MB-435; 3.02 µM in the test on NCI-H23 lung; 2.98 µM in the test on SW-620 colon; 2.62 µM in the test on IGROV1 ovarian.

With `O=C(COc1ccc(OCC(=O)N2C(=O)CC(=O)N(c3ccc(Cl)cc3)C2=S)cc1)N1C(=O)CC(=O)N(c2ccc(Cl)cc2)C1=S`, the TGI in the test on SK-MEL-2 melanoma, in the test with MDA-MB-435, in the test with NCI-H23 lung, with SW-620 colon, in the test with M14 melanoma and with IGROV1 ovarian was above 100 µM in each case. The TGI in the test with MOLT-4 leukemia, with UACC-257 melanoma and in the test with RPMI-8226 leukemia was above 100 µM in each case.

Turning to `COc1ccc(C#Cn2nnc3ccccc32)cc1`, the TGI with SK-MEL-2 melanoma, with MDA-MB-435, in the test with NCI-H23 lung, in the test with SW-620 colon, in the test with M14 melanoma and in the test on IGROV1 ovarian was above 100 µM throughout. The TGI in the test with MOLT-4 leukemia is above 100 µM; in the test on UACC-257 melanoma it was above 100 µM; with RPMI-8226 leukemia, 85.1 µM.

As for `C#CC[C@@]12CC(=O)C[C@@H]1CCC1(C2)OCCO1` (tested in a mixture with another compound), the TGI with SK-MEL-2 melanoma, in the test with NCI-H23 lung, with SW-620 colon, in the test on IGROV1 ovarian, in the test on MOLT-4 leukemia and in the test on UACC-257 melanoma was above 100 µM in each case. This compound also came in with a TGI in the test on RPMI-8226 leukemia above 100 µM.

Turning to `Clc1sc(Cl)c2c1[C@@H](Cl)C[C@@H]2Cl`, the TGI with SK-MEL-2 melanoma, in the test with MDA-MB-435, in the test on NCI-H23 lung, in the test with T-47D breast, in the test on SW-620 colon and in the test on M14 melanoma was above 100 µM throughout. The TGI in the test on IGROV1 ovarian, in the test with MOLT-4 leukemia and with UACC-257 melanoma was above 100 µM in each case.

Consider `O=C(NNC(=S)Nc1ccccc1)c1nsc2ccccc12`, for which the TGI with SK-MEL-2 melanoma is above 100 µM; in the test on NCI-H23 lung it was above 100 µM; in the test with SW-620 colon, above 100 µM; in the test on M14 melanoma, 32.9 µM; in the test on IGROV1 ovarian, above 100 µM; with MOLT-4 leukemia, 98.5 µM. The TGI in the test on UACC-257 melanoma and in the test with RPMI-8226 leukemia was above 100 µM in each case.

Turning to `O=P1(N2CCOCC2)OCCO1`, the TGI with MDA-MB-435, in the test with NCI-H23 lung, in the test on SW-620 colon, in the test on M14 melanoma, with IGROV1 ovarian and in the test on MOLT-4 leukemia was above 100 µM throughout. Besides, the TGI in the test with UACC-257 melanoma and in the test on RPMI-8226 leukemia was above 100 µM each time.

As to `CCn1c(=O)c2nc(SC)sc2n(-c2ccc(C)cc2)c1=O`, the TGI in the test with SK-MEL-2 melanoma is above 100 µM; with NCI-H23 lung, above 100 µM; in the test on T-47D breast, above 100 µM; in the test on SW-620 colon, above 100 µM; with M14 melanoma it was above 45.2 µM; with IGROV1 ovarian, above 100 µM. Moreover, the TGI with MOLT-4 leukemia, with UACC-257 melanoma and in the test on RPMI-8226 leukemia was above 100 µM in each case.

Turning to `O=C1c2cc(Cc3ccccc3)c(=O)c(Cc3ccccc3)cc2C(=O)c2cc(Cc3ccccc3)c(=O)c(Cc3ccccc3)cc21`, the TGI with SK-MEL-2 melanoma, in the test with MDA-MB-435, with NCI-H23 lung, in the test on SW-620 colon, in the test with M14 melanoma and in the test on IGROV1 ovarian was above 100 µM in each case. Further, the TGI in the test with MOLT-4 leukemia, in the test on UACC-257 melanoma and in the test with RPMI-8226 leukemia was above 100 µM in each case.

In the case of `O=C(O)CCC(=O)OCN1C(=O)C2C3C=CC(C2C1=O)C1C2C(=O)N(COC(=O)CCC(=O)O)C(=O)C2C31` (centres undefined), the TGI with SK-MEL-2 melanoma is above 100 µM; in the test on NCI-H23 lung, above 100 µM; in the test on SW-620 colon, above 68.4 µM; in the test with M14 melanoma it was above 100 µM; with IGROV1 ovarian, above 100 µM; with MOLT-4 leukemia it was above 100 µM. Besides, the figures for the TGI with UACC-257 melanoma and in the test with RPMI-8226 leukemia were above 100 µM and 52.5 µM, respectively.

`Cc1c(CNc2ccc(C(=O)NC(CCCNC(=O)c3ccccc3C(=O)O)C(=O)O)cc2)cnc2nc(N)nc(N)c12` (centres undefined): the GI50 was above 100 µM with SK-MEL-2 melanoma; above 100 µM in the test with T-47D breast; 0.0385 µM with M14 melanoma; above 100 µM with UACC-257 melanoma; 0.0216 µM with RPMI-8226 leukemia. Besides, the TGI in the test on SW-620 colon, in the test with UACC-257 melanoma and in the test on RPMI-8226 leukemia was above 100 µM in each case.

Regarding `O=C(CCN1CCOCC1)/C(=C/c1ccccc1)c1ccccc1`, the TGI in the test on SK-MEL-2 melanoma was 21.5 µM; in the test on NCI-H23 lung, 14.1 µM; in the test on SW-620 colon it was 6.9 µM; with IGROV1 ovarian, 22.8 µM; in the test with MOLT-4 leukemia, 5.81 µM; with UACC-257 melanoma, 9.72 µM. The compound further registered a TGI in the test with RPMI-8226 leukemia of 8.05 µM.
